Measurements: patent US6825209B2, “Compounds having unique CB1 receptor binding selectivity and methods for their production and use” (Research Triangle Institute, priority 2002, dated 2004)
Like-named read-outs stand apart in the source and are kept apart here.

How the values were obtained:
[1] = molecular target: T1, human CB1 receptor (Homo sapiens, UniProt P21554); test: Radioligand displacement in human CB1 receptor-transfected cells (HEK-293); format: binding
T1 construct: expressed in transfected cells; host or cells: HEK-293
Method: Human CB1 receptor affinity. The alkyl amide analogs of the present invention were examined using transfected cell lines expressing the human CB1 receptor (Table 3).
(§1) Methods—binding assay in transfected cell lines. The methods used for performing binding assays in transfected cells expressing human CB1 or CB2 receptors are those used above. The CB1 receptor involved a HEK-293 expression system whereas the CB2 receptor was expressed in CHO-K1 cells. […] The incubations and separations were then performed as described above for rat brain membrane preparations.
(§2) Data analysis. Saturation and displacement data were analyzed by unweighted nonlinear regression of receptor binding data. For displacement studies, curve-fitting and IC50 calculation were done with GraphPad Prism (GraphPad Software, Inc., San Diego, Calif.), which fits the data to one and two-site models and compares the two fits statistically. A similar approach was used for the analysis of isotherm data for calculation of Kd's. A two-site fit was accepted only if it was statistically significant (p<0.05) and the following results were not observed:
(§3) IC50 values were then converted to Ki values by reported methods (Cheng and Prusoff, 1973). The statistical evaluation of curve-fitting data allowed for a non-arbitrary conclusion based on the displacement data.

[2] = molecular target: T2, human CB2 receptor (Homo sapiens, UniProt P34972); test: Displacement of 3H-CP55,940 in human CB2 receptor-transfected cells (CHO-K1); format: binding; conditions: radioligand 3H-CP55940, Tables 6 and 7
T2 construct: expressed in transfected cells; host or cells: CHO-K1
Method: Human CB2 receptor affinity. The relative selectivity of the analogs for CB1 versus CB2 receptors varied modestly regardless of the structural modifications examined to date.
as §1, §2, §3

[3] = molecular target: T3, CB1 receptor (Rattus norvegicus, UniProt P20272); test: Radioligand displacement in whole rat brain (CB1) membrane preparations; format: binding; conditions: Tables 1 and 2
T3 construct: Whole rat brains or dissected regions from live CD rats; tissue Charles River or Pel-Freez Biologicals; host or cells: whole rat brain (CD rats), P2 membrane
Source text: CB1 receptor affinity in rat brain.
Methods—membrane preparation from brain. The methods for tissue preparation are essentially those described by Devane et al. (1988) as modified by Compton et al. (1993) and later by Thomas et al. (1998). Whole rat brains or dissected regions from live CD rats from Charles River or Pel-Freez Biologicals (Rogers, Ark.), or human brain sections obtained from the National Disease Research Institute, were allowed to thaw to room temperature on ice. Both whole brain and dissected brain regions were used because different brain regions may express different cannabinoid receptor subtypes (Skaper et al., 1996; Thomas et al., 1998). The tissue was homogenized with a Kontes Potter-Elvehjem glass-Teflon grinding system (Fisher Scientific, Springfield, N.J.) in buffer 1 (320 mM sucrose, 2 mM EDTA, 5 mM MgCl2. The homogenate was centrifuged at 1600 g for 10 min. The supernatant was saved and combined with the two subsequent supernatants obtained from washing and 1600 g centrifugation of the P1 pellet. The combined supernatant fractions were then centrifuged at 39,000 g for 15 min. The P2 pellet was resuspended in 50 mL of buffer 2 (50 mM Tris.HCl, 2 mM EDTA, 5 mM MgCl2, pH 7.0), incubated at 37° C. for 10 min, then centrifuged at 23,000 g for 10 min. The P2 membrane was resuspended in 50 mL of buffer 2, incubated at 30° C. for 40 min, then centrifuged at 11,000 g for 15 min. The final wash-treated P2 pellet was resuspended in assay buffer 3 (50 mM Tris.HCl, 1 mM EDTA, 3 MM MgCl2, pH 7.4). Protein concentrations were determined by the method of Bradford (1976) using Coomassie brilliant blue dye (Bio-Rad, Richmond, Calif.) and BSA standards (bovine serum albumin, fatty acid free, Sigma Chemical Co., St. Louis, Mo.) prepared in assay buffer 3. The membrane preparation was divided into aliquots and stored at −80° C. For use in the binding assay, an aliquot of frozen membranes was thawed on ice and diluted to a concentration of ca. 0.2 mg/mL in assay buffer.
Methods—binding assay in brain membrane preparation. The methods for ligand binding are essentially those described by Devane et al. (1988) with the exception that we used a filtration assay. […] All cannabinoid analogs were prepared by suspension in buffer A from a 1-5 mg/mL ethanolic stock. Following incubation at 30° C. for 1 h, binding was terminated by vacuum filtration through pretreated filters in a 96-well sampling manifold (Millipore, Bedford, Mass.). Reaction vessels were washed at least 3 times with 1 mL of ice cold buffer B (50 mM Tris.HCl, 1 mg/mL BSA). The filter plates were air-dried and sealed on the bottom. Liquid scintillant was added to the wells and the top sealed. After incubating the plates in cocktail for at least 2 h, the radioactivity present was determined by liquid scintillation spectrometry. Assays were done in duplicate, and results represent the combined data of three to six independent experiments. All assays were performed in polypropylene test tubes. The GF/C glassfiber filter plates (Packard, Meriden, Conn.) were pretreated in buffer B for at least 1 h.
as §2, §3

[4] = molecular target: T4, G-protein-linked cannabinoid receptors (Rattus norvegicus, UniProt P20272); test: GTP-γ-[35S] binding in whole rat brain; format: biochemical; conditions: for Emax: read-out: Emax, GTP-γ-[35S] in Whole Rat Brain
T4 construct: tissue Charles River or Pel-Freez Biologicals; host or cells: whole rat brain crude membrane homogenate
Source text: Cannabinoid receptor-mediated alteration in GTP-γ-[^35S] binding.
Introduction. The purpose of this assay was to characterize the functional activity of lead compounds identified by the radioligand competition binding assays described above. Data from the GTP-γ-[^35S] binding assay was used to determine if a compound was an agonist, antagonist or inverse agonist at G-protein-linked cannabinoid receptors. Agonist binding to a G-protein-linked receptor results in an increased affinity of the G-protein α-subunit for GTP relative to GDP. Eventually, an active αGTP complex forms to complete the stimulus-effector coupling. The α-subunit has intrinsic GTPase activity which generates a free α-subunit which can recombine with the β- and γ-subunits readying the G-protein for another signal transduction cycle. In the current assay, GTP-γ-[^35S] cannot be hydrolyzed by the α-subunit. Thus, the amount of bound GTP-γ-[^35S] is a marker for G-protein activation. In this assay, an agonist increases basal GTP-γ-[^35S] binding, an inverse agonist decreases basal binding and basal binding would be unaffected by an antagonist.
Experimental Design. The specific binding of GTP-γ-[^35S], in the absence of test compound, was termed “basal” activity. Test compounds were characterized as agonist, antagonist, or inverse agonist based on their effect on basal activity. […] The concentrations spanned two orders of magnitude because affinity may not be related to efficacy. […] Effects of the test compounds are reported as the percent change from basal. More thorough dose-response analysis may be run to determine, for example, if a compound is a full or partial agonist.
Methods. […] In a final volume of 0.5 mL, each assay tube contained: 0.02 mg crude membrane homogenate (0.1 mL), 200 μM GDP (0.05 mL; to reduce basal G-protein activity), 0.1 nM GTP-γ-[^35S] (0.05 mL) and several concentrations of test compound (0.05 mL) or an equivalent volume of vehicle (used for determination of total binding). Nonspecific binding was determined in the presence of 100 μM unlabeled GTP-γ-S (0.05 mL). Duplicate samples were incubated for 1 h at 30° C. Since this assay is amenable for use with high throughput screening methods, the binding assays were run using a 96-well plate format. Specific binding was calculated as total binding-nonspecific binding.

[5] = read-out: Ki, displacement of 3H-CP55940, human CB2 transfected cells
[6] = read-out: Ki, displacement of 3H-CP55940, whole rat brain membranes, radioligand 3H-CP55940
[7] = read-out: Ki, displacement of 3H-SR141716A, whole rat brain membranes, radioligand 3H-SR141716A
[8] = whole rat brain membranes, radioligand 3H-CP55940
[9] = whole rat brain membranes, radioligand 3H-SR141716A
[10] = whole rat brain membranes, effects reported as percent change from basal
[11] = whole rat brain membranes, inverse agonist/antagonist activity, read-out: EC50, GTP-γ-[35S] in Whole Rat Brain
[12] = Ki, displacement of 3H-CP55940, human CB2 transfected cells
[13] = Ki, displacement of 3H-CP55940, whole rat brain membranes, radioligand 3H-CP55940
[14] = Ki, displacement of 3H-SR141716A, whole rat brain membranes, radioligand 3H-SR141716A

T3 sequence (P20272 whole entry): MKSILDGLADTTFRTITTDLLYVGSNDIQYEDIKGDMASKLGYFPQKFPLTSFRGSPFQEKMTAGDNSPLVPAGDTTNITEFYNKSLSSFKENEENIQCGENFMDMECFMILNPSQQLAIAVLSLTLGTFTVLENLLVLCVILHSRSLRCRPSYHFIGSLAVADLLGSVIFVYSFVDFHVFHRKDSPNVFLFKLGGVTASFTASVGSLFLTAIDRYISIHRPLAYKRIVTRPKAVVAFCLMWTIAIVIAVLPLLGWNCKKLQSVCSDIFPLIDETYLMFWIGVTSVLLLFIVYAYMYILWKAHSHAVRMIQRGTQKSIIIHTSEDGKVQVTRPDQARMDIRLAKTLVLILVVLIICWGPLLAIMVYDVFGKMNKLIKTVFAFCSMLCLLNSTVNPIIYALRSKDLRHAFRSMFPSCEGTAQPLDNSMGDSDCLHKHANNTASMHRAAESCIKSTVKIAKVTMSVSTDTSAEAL
T4 sequence (P20272 whole entry): as above
T1 sequence (P21554 whole entry): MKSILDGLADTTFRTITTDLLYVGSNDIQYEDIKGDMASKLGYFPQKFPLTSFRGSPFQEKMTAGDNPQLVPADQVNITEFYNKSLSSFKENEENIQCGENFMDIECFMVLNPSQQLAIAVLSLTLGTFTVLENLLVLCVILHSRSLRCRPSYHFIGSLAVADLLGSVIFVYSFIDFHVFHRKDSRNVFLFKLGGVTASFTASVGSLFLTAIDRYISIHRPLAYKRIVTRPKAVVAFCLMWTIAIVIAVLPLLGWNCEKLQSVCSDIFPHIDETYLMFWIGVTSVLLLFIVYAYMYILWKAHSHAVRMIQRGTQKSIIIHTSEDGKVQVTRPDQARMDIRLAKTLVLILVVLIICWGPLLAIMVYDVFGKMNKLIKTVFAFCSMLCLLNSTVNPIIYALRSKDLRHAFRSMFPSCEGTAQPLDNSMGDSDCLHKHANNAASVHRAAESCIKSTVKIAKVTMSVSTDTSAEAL
T2 sequence (P34972 whole entry): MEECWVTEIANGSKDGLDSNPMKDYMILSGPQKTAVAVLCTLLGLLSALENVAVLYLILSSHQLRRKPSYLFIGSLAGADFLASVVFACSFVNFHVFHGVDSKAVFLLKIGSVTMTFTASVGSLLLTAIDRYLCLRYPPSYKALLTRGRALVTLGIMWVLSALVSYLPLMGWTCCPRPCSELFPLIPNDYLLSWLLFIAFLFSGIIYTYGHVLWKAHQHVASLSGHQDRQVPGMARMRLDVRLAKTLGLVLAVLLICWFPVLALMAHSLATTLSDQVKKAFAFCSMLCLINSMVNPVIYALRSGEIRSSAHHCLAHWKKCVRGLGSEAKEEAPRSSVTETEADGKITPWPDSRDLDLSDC

| SMILES | Max. Disp. %, 3H-CP55940 ([2]; human CB2 transfected cells) | Ki [2, 5] | Ki [3, 6] | Ki [3, 7] | Max. Disp. %, 3H-CP55940 [3, 8] | Max. Disp. %, 3H-SR141716A [3, 9] | Emax [4, 10] | EC50 [4, 11] | Ki [2, 12] | Ki [3, 13] | Ki [3, 14] | Emax, GTP-γ-[35S] in Whole Rat Brain [4, 10] | other results |
| --- | --- | --- | --- | --- | --- | --- | --- | --- | --- | --- | --- | --- | --- |
| CCCNC(=O)c1nn(-c2ccc(Cl)cc2Cl)c(-c2ccc(Cl)cc2)c1C [MF9725-55C] | 68.3% | 2960 nM | 29.9 nM | 23.6 nM | 97.4% | 100% | -35.7% | 11100 nM | – | – | – | – | Ki ([1]; displacement of 3H-CP55940, human CB1 transfected cells, radioligand 3H-CP55940, Table 3): 33.7 nM; Ki ([1]; displacement of 3H-SR141716A, human CB1 transfected cells, radioligand 3H-SR141716A, Table 3): 6 nM; Max. Disp. %, 3H-CP55940 ([1]; human CB1 transfected cells, radioligand 3H-CP55940, Table 3): 81.9%; Max. Disp. %, 3H-SR141716A ([1]; human CB1 transfected cells, radioligand 3H-SR141716A, Table 3): 93.4%; Max. Disp. %, 3H-WIN55212-2 ([1]; human CB1 transfected cells, radioligand 3H-WIN55212-2, Table 3): 73.3% |
| CCCCCCCCNC(=O)c1nn(-c2ccc(Cl)cc2Cl)c(-c2ccc(Cl)cc2)c1C [MF9879-164-28] | 45.3% | – | – | – | 80.2% | 75.2% | – | – | 98400 nM | 135 nM | 37.4 nM | – | Max. Disp. %, 3H-CP55940 [1]: 70.6%; Max. Disp. %, 3H-SR141716A [1]: 67.8%; Max. Disp. %, 3H-WIN55212-2 [1]: 35.2%; Ki ([1]; displacement of 3H-CP55940): 288 nM; Ki ([1]; displacement of 3H-SR141716A): 44.7 nM; Ki ([1]; displacement of 3H-WIN55212-2): 267 nM; Ki ([3]; Ki, displacement of 3H-WIN55212-2, whole rat brain membranes, radioligand 3H-WIN55212-2): 36.2 nM; Max. Disp. %, 3H-WIN55212-2 ([3]; whole rat brain membranes, radioligand 3H-WIN55212-2): 68.4%; EC50 [4]: ≥ 677000 nM; Emax [4]: -21.3% |
| Cc1c(C(=O)NCCCO)nn(-c2ccc(Cl)cc2Cl)c1-c1ccc(Cl)cc1 [MF9725-94-31] | 43.1% | 1250 nM | 160 nM | 156 nM | 86.6% | 100% | -83.3% | 241000 nM | – | – | – | – | – |
| Cc1c(C(=O)NN2CCCCC2)nn(C2CCCCC2)c1-c1ccc(Cl)cc1 [MF9879-117-24] | – | – | – | – | – | – | – | 108000 nM | – | – | – | −71.7 | – |
| CCCCCCCn1nc(C(=O)NN2CCCCC2)c(C)c1-c1ccc(Cl)cc1 [MF10278-20-15] | – | – | – | – | – | – | – | 156000 nM | – | – | – | −85.7 | – |
| Cc1c(C(=O)NC(C)CO)nn(-c2ccc(Cl)cc2Cl)c1-c1ccc(Cl)cc1 (single isomer, unassigned) [MF9725-105-38] | 47.5% | – | – | – | – | 96.8% | – | 294000 nM | 5900 nM | 117 nM | 123 nM | −83.8 | – |
